Measured values reported in article PMC2568900 (Biochemistry, 2008).
“Also recorded” adds a separate entry of the source.

How the values were obtained:
PDHK2-Y320F bound to L2 = assay: GST-L2 pull-down; assay type: binding, rat; settings: for effect on amount of kinase bound to L2: nucleotide 0.5 mM
PDHK2-Y320F [1] = target: T1, PDHK2-Y320F (Rattus norvegicus, UniProt Q64536, Y328F); assay: ATP, ADP and DCA binding by quenching of intrinsic tryptophan fluorescence; settings: for Qmax: quenching caused by the varied ligand
[2] = target: L2 binding to PDHK2-N247Q (Rattus norvegicus, UniProt Q64536, N255Q); assay: GST-L2 pull-down; settings: PDHK2-N247Q (cannot bind nucleotides); nucleotides 10 mM each
PDHK2-wt = PDHK2-wt (Rattus norvegicus, UniProt Q64536); assay: ATP, ADP and DCA binding by quenching of intrinsic tryptophan fluorescence
PDHK2-R250A = PDHK2-R250A (Rattus norvegicus, UniProt Q64536, R258A); assay: as above
PDHK2-T302A [3] = target: T2, PDHK2-T302A (Rattus norvegicus, UniProt Q64536, T310A); assay: Isothermal titration calorimetry of L2 binding; settings: ITC, 10 mM ATP
PDHK2-T302A [4] = target: T2, PDHK2-T302A; assay: ATP, ADP and DCA binding by quenching of intrinsic tryptophan fluorescence
PDHK2-Y320F [5] = target: T1, PDHK2-Y320F; assay: Kinase activity assay; assay type: biochemical; settings: standard phosphorylation assay
wild-type PDHK2 [6] = target: T3, wild-type PDHK2 (Rattus norvegicus, UniProt Q64536); assay: biochemical
wild-type PDHK2 [7] = target: T3, wild-type PDHK2; settings: control, wide range of concentrations
[8] = PDHK2-wt, fixed ligand DCA (0.5 mM)
[9] = PDHK2-wt, no fixed ligand, 25 °C

With `Nc1ncnc2c1ncn2[C@@H]1O[C@H](COP(=O)(O)OP(=O)(O)O)[C@@H](O)[C@H]1O` [ADP] the “effect on amount of kinase bound to L2” value (PDHK2-Y320F bound to L2) was “significant decrease”, the “increase in affinity for ADP by DCA (factor)” value (PDHK2-Y320F [1]; 0.5 mM DCA) was 3.5 and the Kd (PDHK2-Y320F [1]; fixed ligand DCA (0.5 mM)) was 2.5 ± 0.2 µM. For the same compound, the nH (PDHK2-Y320F [1]; fixed ligand DCA (0.5 mM)) was 1.9 ± 0.1, the Qmax (PDHK2-Y320F [1]; fixed ligand DCA (0.5 mM)) was 37 ± 1% and the “Qmax (extrapolated maximal quenching)” value (PDHK2-Y320F [1]; no fixed ligand) was 24 ± 1%. The “nH (Hill coefficient)” value (PDHK2-Y320F [1]; no fixed ligand) was 1.4 ± 0.1, the Kd (PDHK2-Y320F [1]; no fixed ligand, 25 °C) was 8.9 ± 0.1 µM and the “effect on L2 binding” value [2] was “did not exert any nonspecific effects”. It also gave a Kd (PDHK2-wt; [8]) of 2 ± 0.1 µM, a nH (PDHK2-wt; [8]) of 2.2 ± 0.1 and a Qmax (PDHK2-wt; PDHK2-wt, fixed ligand DCA (0.5 mM), quenching caused by the varied ligand) of 39 ± 1%. The “Qmax (extrapolated maximal quenching)” value (PDHK2-wt; PDHK2-wt, no fixed ligand) was 31 ± 1%, the “nH (Hill coefficient)” value (PDHK2-wt; PDHK2-wt, no fixed ligand) was 1.5 ± 0.2 and the Kd (PDHK2-wt; [9]) was 10.6 ± 0.5 µM. The “increase in affinity for ADP in the presence of DCA” value (PDHK2-wt; wild-type PDHK2, 0.5 mM DCA) was “approximately 5 times”.
`Nc1ncnc2c1ncn2[C@@H]1O[C@H](COP(=O)(O)OP(=O)(O)OP(=O)(O)O)[C@@H](O)[C@H]1O` [ATP] was tested, and the “decrease in affinity relative to wild-type PDHK2” value (PDHK2-R250A) was > 30 fold, the “Qmax (extrapolated maximal quenching)” value (PDHK2-R250A; no fixed ligand) was 29 ± 1% and the “nH (Hill coefficient)” value (PDHK2-R250A; no fixed ligand) was 1.0 ± 0.1. The Kd (PDHK2-R250A; no fixed ligand, 25 °C) was 80 ± 1 µM, the “effect on amount of kinase bound to L2” value (PDHK2-Y320F bound to L2) was “significant decrease” and the “Qmax (extrapolated maximal quenching)” value (PDHK2-Y320F [1]; no fixed ligand) was 32 ± 1%. For the same compound, the “nH (Hill coefficient)” value (PDHK2-Y320F [1]; no fixed ligand) was 2.4 ± 0.1, the Kd (PDHK2-Y320F [1]; no fixed ligand, 25 °C) was 1.7 ± 0.1 µM and the “effect on L2 binding” value (PDHK2-T302A [3]) was “little, if any, effect”. For the same compound, the “effect on L2 binding” value [2] was “did not exert any nonspecific effects”, the “Qmax (extrapolated maximal quenching)” value (PDHK2-wt; PDHK2-wt, no fixed ligand) was 37 ± 1% and the “nH (Hill coefficient)” value (PDHK2-wt; PDHK2-wt, no fixed ligand) was 1.9 ± 0.1. The Kd (PDHK2-wt; [9]) was 2.5 ± 0.4 µM, the “decrease in affinity relative to wild-type PDHK2” value (PDHK2-T302A [4]) was “more than 20 fold” and the “Qmax (extrapolated maximal quenching)” value (PDHK2-T302A [4]; no fixed ligand) was 23 ± 1%. For the same compound, the “nH (Hill coefficient)” value (PDHK2-T302A [4]; no fixed ligand) was 1.5 ± 0.1 and the Kd (PDHK2-T302A [4]; no fixed ligand, 25 °C) was 60 ± 1 µM.
`O=C(O)C(Cl)Cl` [DCA, dichloroacetate] showed a Kd (PDHK2-R250A; Kd, fixed ligand ADP (50 μM)) of 161 ± 4 µM, a Kd (PDHK2-R250A; Kd, fixed ligand ADP (500 μM)) of 59 ± 1 µM and a Kd (PDHK2-R250A; Kd, no fixed ligand, 25 °C) of 312 ± 25 µM. For the same compound, the “effect on L2 binding, added alone” value (PDHK2-Y320F bound to L2; DCA 1 mM alone) was “little, if any, influence”, the “effect on L2 binding, in combination with ATP or ADP” value (PDHK2-Y320F bound to L2; DCA 1 mM with 0.5 mM ATP or ADP) was “potentiated the effects of adenine nucleotides” and the Kd (PDHK2-Y320F [1]; Kd, fixed ligand ADP (50 μM)) was 33 ± 1 µM. The Kd (PDHK2-Y320F [1]; Kd, no fixed ligand, 25 °C) was 292 ± 10 µM, the Qmax (PDHK2-Y320F [1]; fixed ligand ADP (50 μM)) was 29 ± 1% and the “effect on kinase activity” value (PDHK2-Y320F [5]) was “neither of the mutant kinases displayed an effect of DCA that would significantly exceed that of sodium acetate; also recorded: did not display an appreciable inhibitory effect; also recorded: no appreciable effect”. It also gave an IC50 (wild-type PDHK2 [6]) of ~690 µM, a Kd (PDHK2-wt; Kd, PDHK2-wt, no fixed ligand, 25 °C) of 226 ± 7 µM and a Kd (PDHK2-T302A [4]; Kd, fixed ligand ADP (50 μM)) of 249 ± 9 µM. The Kd (PDHK2-T302A [4]; Kd, fixed ligand ADP (500 μM)) was 103 ± 1 µM and the Kd (PDHK2-T302A [4]; Kd, no fixed ligand, 25 °C) was 320 ± 20 µM.
In the case of `CC(=O)[O-].[Na+]` [sodium acetate], the “effect on kinase activity” value (wild-type PDHK2 [7]) is reported as “slight decrease in PDHK2 activity”.
